# Reference: patent publication US20070129426A1, “Therapeutic drugs for arthritis” (Shanghai Ambrosia Pharmaceutical Co., Ltd., priority 2003, published 2007)
# What was measured:
# [1] = system: adjuvant-induced arthritis of rats; assay: Adjuvant-induced arthritis of rats; format: in vivo, Male Wistar rats
# Description: Experimental animal: Male Wistar rats. Body weights were about 150 g.
# Method of administration: intraperitoneal injection. The dose of wedelolactone was 0.25 mg/kg or 12.5 mg/kg, prepared in 0.5% CMC. The dose of methotrexate (MTX) is 0.2 mg/kg.
# Method of experiment: The animals were divided randomly into 4 groups based on their body weights. They were adapted for 3 days before experiments. The left hind planta of the rats were injected subcutaneously with 0.1 ml CFA emulsion to induce inflammation. On the Day 10, after the administration of the adjuvant, the rats were injected intraperitoneally with 5 ml/kg test compound wedelolactone for 19 continuous days. On and after the day of administration of the adjuvant, the change of thickness of the four rat paws was measured daily using a vernier caliper, and the volume of the back paw were measured using a Plethysmometer. The data from day 5, 10, 15, and 19 after administration were used for statistic analyses.
# [2] = system: acute inflammation of mice ear caused by dimethylbenzene; assay: Mice ear inflammation caused by dimethylbenzene; format: in vivo, Kunming mice; details: 25 mg/kg i.p., 4 days; 2 h after dimethylbenzene; n=10
# Description: Experimental animal: Kunming mice, body weight 18-22 g.
# Method of administration: intraperitoneal injection. The doses of wedelolactone were 12.5 mg/kg and 25 mg/kg, respectively; the negative control used 0.5% CMC; the positive control used ibuprofen (25 mg/kg).
# Method of experiment: The animals were divided randomly into 4 groups based on their body weights, 10 mice each group. The mice were administered with the test compound for 4 continuous days. On Day 4, both sides of the right ears of the mice were daubed evenly with 50 μl dimethylbenzene 2 hours after the administration. The left ears were not treated. The mice were left for 2 hours and then sacrificed by cervical dislocation. The ear specimens were obtained by punching both ears with a 8 mm hole-puncher. The specimens were weighed and the differences between the left and the right ears were used to evaluate the effect of the compound on the inflammation.
# [3] = system: rat toes edema caused by carrageenan; assay: Rat toes edema caused by carrageenan; format: in vivo, Male Wistar rats; details: 25 mg/kg i.p., 7 days
# Description: Experimental animal: Male Wistar rats. Body weights are about 200 g.
# Method of administration: intraperitoneal injection. The dose of compound 1, 2, or 3 is 12 mg/kg, respectively. The negative control used 0.5% CMC; the positive control used ibuprofen, with a dose of 25 mg/kg.
# Method of experiment: The animals were divided randomly into […] based on their body weights, […]. The 4 groups were negative control group, positive control group, compound 1 group, compound 2 group, and compound 3 group. The animals were administered daily for 7 continuous days. On Day 7, the aponeurosis of right hind toes were injected with 0.1 ml of 1% carrageenan 30 minutes after the administration. The edema of the toes at different time points after induction of the inflammation was then measured.
# [4] = 0.2 mg/kg i.p., day 5 after administration
# [5] = 0.2 mg/kg i.p., day 5 after administration, adjuvant-injected paw
# [6] = 0.2 mg/kg i.p., day 10 after administration
# [7] = 0.2 mg/kg i.p., day 10 after administration, adjuvant-injected paw
# [8] = 0.2 mg/kg i.p., day 15 after administration
# [9] = 0.2 mg/kg i.p., day 15 after administration, adjuvant-injected paw
# [10] = 0.2 mg/kg i.p., day 19 after administration
# [11] = 0.2 mg/kg i.p., day 19 after administration, adjuvant-injected paw
structure (smiles),measurement,setting,value
"CN(Cc1cnc2nc(N)nc(N)c2n1)c1ccc(C(=O)N[C@@H](CCC(=O)O)C(=O)O)cc1 [MTX, methotrexate, reference compound]","Left front paw thickness, Day 5",[1]; [4],4.14 ± 0.14 mm
same,"Right front paw thickness, Day 5",[1]; [4],4.00 ± 0.10 mm
same,"Right hind paw thickness, Day 5",[1]; [4],4.89 ± 0.23 mm
same,"Right hind paw volume, Day 5",[1]; [4],1.09 ± 0.07 mL
same,"Left hind paw thickness, Day 5",[1]; [5],6.96 ± 1.97 mm
same,"Left hind paw volume, Day 5",[1]; [5],1.68 ± 0.32 mL
same,"Left front paw thickness, Day 10",[1]; [6],3.96 ± 0.10 mm
same,"Right front paw thickness, Day 10",[1]; [6],3.84 ± 0.10 mm
same,"Right hind paw thickness, Day 10",[1]; [6],4.87 ± 0.18 mm
same,"Right hind paw volume, Day 10",[1]; [6],1.00 ± 0.10 mL
same,"Left hind paw thickness, Day 10",[1]; [7],7.44 ± 1.42 mm
same,"Left hind paw volume, Day 10",[1]; [7],1.73 ± 0.23 mL
same,"Left front paw thickness, Day 15",[1]; [8],4.04 ± 0.10 mm
same,"Right front paw thickness, Day 15",[1]; [8],4.07 ± 0.13 mm
same,"Right hind paw thickness, Day 15",[1]; [8],5.04 ± 0.28 mm
same,"Right hind paw volume, Day 15",[1]; [8],1.17 ± 0.11 mL
same,"Left hind paw thickness, Day 15",[1]; [9],7.86 ± 1.36 mm
same,"Left hind paw volume, Day 15",[1]; [9],1.93 ± 0.34 mL
same,"Left front paw thickness, Day 19",[1]; [10],4.09 ± 0.11 mm
same,"Right front paw thickness, Day 19",[1]; [10],4.00 ± 0.12 mm
same,"Right hind paw thickness, Day 19",[1]; [10],4.90 ± 0.08 mm
same,"Right hind paw volume, Day 19",[1]; [10],1.19 ± 0.09 mL
same,"Left hind paw thickness, Day 19",[1]; [11],7.51 ± 1.40 mm
same,"Left hind paw volume, Day 19",[1]; [11],1.84 ± 0.26 mL
same,Primary inflammation of the left foot and secondary inflammation of the right foot (FIG. 2),[1]; treated with MTX,alleviated
CC(C)Cc1ccc(C(C)C(=O)O)cc1 (stereo not shown) [ibuprofen],Difference (mg) between left and right ear,[2],11.4 ± 3.6 mg
same,"Edema index (ml) after induction of the inflammation, 1 h",[3]; 1 h,0.31 ± 0.06 mL
same,"Edema index (ml) after induction of the inflammation, 2 h",[3]; 2 h,0.38 ± 0.10 mL
same,"Edema index (ml) after induction of the inflammation, 4 h",[3]; 4 h,0.42 ± 0.11 mL
same,"Edema index (ml) after induction of the inflammation, 6 h",[3]; 6 h,0.39 ± 0.06 mL
same,"Edema index (ml) after induction of the inflammation, 24 h",[3]; 24 h,0.37 ± 0.07 mL
